In ChEMBL document CHEMBL6115007, “Synthesis and in vitro and in vivo evaluation of novel bivalent quinolines as antitumor agents via targeting autophagy in cervical cancer” (Eur J Med Chem, 2025):
Active and inactive are the calls of the source. No cut-off for these calls is given here.

Columns and labels:
Assay type in all cases: functional, cell-based
[1] = test system: HeLa; assay: Induction of ferroptosis in human HeLa cells assessed as increase in lipid ROS level by measuring rightward shift in fluorescence intensity at 8 uM measured after 12 hrs by C11-BODIPY-581/591 staining based flow cytometric analysis
[2] = test system: Ca-Ski; assay: Induction of ferroptosis in human Ca Ski cells assessed as increase in lipid ROS level by measuring rightward shift in fluorescence intensity at 6 uM measured after 12 hrs by C11-BODIPY-581/591 staining based flow cytometric analysis
[3] = test system: HeLa; assay: Antiproliferative activity against human HeLa cells assessed as reduction in cell optical density incubated for 48 hrs by MTT assay
[4] = test system: HCT-116; assay: Antiproliferative activity against human HCT-116 cells assessed as reduction in cell optical density incubated for 48 hrs by MTT assay; settings: HCT-116, 48 h
[5] = test system: BGC-823; assay: Antiproliferative activity against human BGC-823 cells assessed as reduction in cell optical density incubated for 48 hrs by MTT assay; settings: BGC-823, 48 h
[6] = test system: HepG2; assay: Antiproliferative activity against human HepG2 cells assessed as reduction in cell optical density incubated for 48 hrs by MTT assay; settings: HepG2, 48 h
[7] = test system: A549; assay: Antiproliferative activity against human A549 cells assessed as reduction in cell optical density incubated for 48 hrs by MTT assay; settings: A549, 48 h
[8] = test system: MCF7; assay: Antiproliferative activity against human MCF7 cells assessed as reduction in cell optical density incubated for 48 hrs by MTT assay; settings: MCF7, 48 h
[9] = test system: HeLa; assay: Induction of autophagy in human HeLa cells transfected with mRFP-GFP-LC3 plasmid assessed as stable RFP fluorescence at 30 uM incubated for 24 hrs by DAPI staining based fluorescence confocal microscopic analysis

Row | SMILES | IC50 [3] | IC50 [4] | IC50 [5] | IC50 [6] | IC50 [7] | IC50 [8] | Activity [1] | Activity [2] | Activity [9]
1 | COC(=O)c1ccc([C@H]2c3[nH]c4ccccc4c3C[C@H](C(=O)OC)N2C(=O)CCl)cc1 |  |  |  |  |  |  | Active | Active | 
2 | FC(F)(F)Oc1cccc(Nc2ccnc3cc(OCCCCOc4ccc5c(Nc6cccc(OC(F)(F)F)c6)ccnc5c4)ccc23)c1 | 14.1 µM | 13.5 µM | 66 µM | 2.75 µM | 2.75 µM | > 200 µM |  |  | 
3 | CO[C@H]1C[C@@H]2CC[C@@H](C)[C@@](O)(O2)C(=O)C(=O)N2CCCC[C@H]2C(=O)O[C@H]([C@H](C)C[C@@H]2CC[C@@H](O)[C@H](OC)C2)CC(=O)[C@H](C)/C=C(\C)[C@@H](O)[C@@H](OC)C(=O)[C@H](C)C[C@H](C)/C=C/C=C/C=C/1C |  |  |  |  |  |  |  |  | Active
4 | CN1CCN(c2ccnc3cc(OCCCCCCOc4ccc5c(N6CCN(C)CC6)ccnc5c4)ccc23)CC1 | 26.1 µM | 42.3 µM | 50.2 µM | 43.3 µM | 0.33 µM | 44.3 µM |  |  | 
5 | FC(F)(F)Oc1cccc(Nc2ccnc3cc(OCCCCCCOc4ccc5c(Nc6cccc(OC(F)(F)F)c6)ccnc5c4)ccc23)c1 | 28.3 µM | 10.3 µM | 89.4 µM | 44.8 µM | 0.31 µM | > 200 µM |  |  | 
6 | FC(F)(F)Oc1cccc(Nc2ccnc3cc(OCCCCCOc4ccc5c(Nc6cccc(OC(F)(F)F)c6)ccnc5c4)ccc23)c1 | 14.3 µM | 17.2 µM | 3.35 µM | 24.8 µM | 0.78 µM | 38 µM |  |  | 
7 | CN1CCN(c2ccnc3cc(OCCCCOc4ccc5c(N6CCN(C)CC6)ccnc5c4)ccc23)CC1 | 146 µM | > 200 µM | 136 µM | > 200 µM | 139 µM | > 200 µM |  |  | 
8 | CN1CCN(c2ccnc3cc(OCCCCCOc4ccc5c(N6CCN(C)CC6)ccnc5c4)ccc23)CC1 | 30.9 µM | 3.85 µM | 3.55 µM | 35.1 µM | 26 µM | 6.03 µM |  |  | 

More lines, main results first:

Row | IC50 [3] | IC50 [4] | IC50 [5] | IC50 [6] | IC50 [7] | IC50 [8] | SMILES | Activity [1] | Activity [2] | Activity [9]
9 | 4.34 µM | 3.28 µM | 2.44 µM | 45.4 µM | 2.55 µM | 4.98 µM | Fc1cccc(Nc2ccnc3cc(OCCCCCOc4ccc5c(Nc6cccc(F)c6)ccnc5c4)ccc23)c1 |  |  | 
10 | 37.3 µM | 17.1 µM | 18.7 µM | 10.5 µM | 13.3 µM | 6.79 µM | Fc1cccc(Nc2ccnc3cc(OCCCCOc4ccc5c(Nc6cccc(F)c6)ccnc5c4)ccc23)c1 |  |  | 
11 | 0.94 µM | 6.64 µM | 9.82 µM | 0.36 µM | 0.75 µM | > 200 µM | Fc1cccc(Nc2ccnc3cc(OCCCCCCOc4ccc5c(Nc6cccc(F)c6)ccnc5c4)ccc23)c1 |  |  | 
12 | 48.3 µM | > 200 µM | 63.8 µM | > 200 µM | 142 µM | 47.2 µM | COc1cccc(Nc2ccnc3cc(OCCCCOc4ccc5c(Nc6cccc(OC)c6)ccnc5c4)ccc23)c1 |  |  | 
13 | 4.07 µM | 6.99 µM | 3.58 µM | 31.9 µM | 6.15 µM | 5.55 µM | COc1cccc(Nc2ccnc3cc(OCCCCCCOc4ccc5c(Nc6cccc(OC)c6)ccnc5c4)ccc23)c1 |  |  | 
